According to patent US20080108702A1, “Use of Acetyl-Leucine for Preparing a Drug for Treating Balance Disorders” (priority 2005, published 2008):

Assays:
[1] = test system: patients with an indication for acoustic neurinoma excision or for vestibular neurotomy; assay: Ability to maintain a standing position eight days following neurotomy (randomized, placebo-controlled); assay type: in vivo, human
Experimental: Sixty patients with an indication for acoustic neurinoma excision or for vestibular neurotomy were included and randomized. Patients were treated for 60 days either with Tanganil® (six injections of two 500 mg vials by IV route, with an interval of 12 hours between injections, the first taking place one hour after the surgery, followed by an oral treatment at a dose of two 500 mg tablets, one in the morning and one in the evening) or with a placebo.
Vestibular deficit was measured according to the methods described in Vertigo and the practitioner [Les vertiges et le praticien] by P. Tran Ba Huy and C. De Waele (Coll Pathologie Sciences Formation [in French], Ed. John Libbey Eurotext, Paris, 1996) and in Vertigo [Les vertiges] by G. Rancurel, O. Sterkers, E. Vitte, foreword by G. Freyss (Ed. Méd. Spécia. [in French], 1989).
Vestibular reflex was tested at day zero (D0) before neurotomy by caloric testing to objectivize vestibular hyporeflexia or areflexia. This test consists of successively irrigating with warm water then cold the right external auditory meatus then the left, causing in the semicircular canal an endolymph current which moves the ampullary crest. Caloric response is expressed by the appearance of a nystagmus that beats toward the side of the stimulated ear when warm water is applied and toward the opposite side when cold water is applied. The nystagmic response was recorded by video nystagmography and its frequency calculated, i.e., the number of nystagmic beats occurring between the 60th and 90th seconds following the initiation of stimulation. This number quantifies the vestibular response.
The difference in responses between one ear and the other expresses so-called hypovalence, i.e., the difference between the warm and cold responses on the left side and the warm and cold responses on the right side, divided by the total number of responses. In normal subjects, hypovalence is less than 15%. Hypovalence is the main sign of damage to the peripheral vestibular apparatus.
The principle criterion was “able to maintain a standing position at D8” (Yes/No)

[2] = test system: patients with an indication for acoustic neurinoma excision or for vestibular neurotomy; assay: Symptoms (vertigo and vomiting) rated by patients on 10 cm visual analog scales (VAS); assay type: in vivo, human
Experimental: Sixty patients with an indication for acoustic neurinoma excision or for vestibular neurotomy were included and randomized. Patients were treated for 60 days either with Tanganil® (six injections of two 500 mg vials by IV route, with an interval of 12 hours between injections, the first taking place one hour after the surgery, followed by an oral treatment at a dose of two 500 mg tablets, one in the morning and one in the evening) or with a placebo. Subjective signs (vertigo and vomiting) were rated by patients on a 10 cm VAS from “absent” to “highly incapacitating”.

[3] = test system: vertigo symptomatology; conditions: clinical results reported by various authors; cited from earlier work
[4] = test system: cats having undergone vestibular neurotomy; conditions: oral route, 28 mg per kg per day; cats after vestibular neurotomy; cited from earlier work
[5] = test system: guinea pig after unilateral labyrinthectomy; conditions: cited from earlier work
[6] = test system: patients with an indication for acoustic neurinoma excision or for vestibular neurotomy; assay: Balance evaluated by static posturography; assay type: in vivo, human
Experimental: Sixty patients with an indication for acoustic neurinoma excision or for vestibular neurotomy were included and randomized. Patients were treated for 60 days either with Tanganil® (six injections of two 500 mg vials by IV route, with an interval of 12 hours between injections, the first taking place one hour after the surgery, followed by an oral treatment at a dose of two 500 mg tablets, one in the morning and one in the evening) or with a placebo. Static posturography (not performed at D8 if the subject could not remain standing) was carried out in a standing position under four conditions (eyes open or closed, with or without foam carpeting). With foam carpeting and/or eyes closed, patients are placed under conditions which minimize the role of visual and proprioceptive information. Shifts in a subject's center of gravity during a given time period are recorded in a statokinesigram. This plot makes it possible to study oscillation amplitudes and surface areas. “Anteroposterior” oscillations can be separated from “right-left” oscillations.

[7] = test system: mouse median vestibular neurons (MVN); assay: Electrophysiological study in current clamp mode on median vestibular neurons; assay type: cell-based; conditions: for effect on action potentials of depolarized neurons: depolarized neurons (approximately −35 mV), after several minutes of application; for Membrane potential: hyperpolarized neurons (approximately −70 mV); for Action potential frequency / Action potential height / Depolarization threshold / Resting potential: neurons spontaneously active at the resting potential
Experimental: An electrophysiological study was conducted on mouse median vestibular neurons (MVN) in which the membrane potential was artificially maintained at various resting values. In this study, the effects of the D and L enantiomers of acetyl-leucine (1 mM) were tested on the membrane properties of neurons in “current clamp” mode at various membrane potential values: normal membrane potential (approximately −45 mV), potential maintained at a hyperpolarized level of approximately −70 mV or potential maintained at a depolarized level of approximately −35 mV.

[8] = test system: surgical unilateral neurotomy model in the cat; assay: Surgical unilateral neurotomy model (preliminary tests); assay type: in vivo

**Q.** With CC(=O)N[C@@H](CC(C)C)C(=O)O (racemic) [Tanganil®, acetyl-leucine] as the compound, how does the “difference between the two treatment groups, able to maintain a standing position at D8” value ([1]; 25 patients whose vestibular deficit was greater than 75%) read?
**A.** no significant difference

**Q.** What about the “difference between the two treatment groups, able to maintain a standing position at D8” value ([1]; 31 patients whose vestibular deficit was less than or equal to 75%, χ^2=0.048) of the same compound?
**A.** statistically significant difference

**Q.** What about the “effect on compensation after neurotomy” value ([1]; patient population exhibiting no vestibular functioning before neurotomy) of the same compound?
**A.** no effect

**Q.** What about the “effect on compensation after neurotomy” value ([1]; patients exhibiting residual vestibular functioning) of the same compound?
**A.** accelerates the compensation

**Q.** And the “difference between Tanganil and placebo, able to maintain a standing position at D8” value ([1]; principle analysis of 49 patients)?
**A.** no statistically significant difference

**Q.** What about the “patients able to maintain a standing position at D8” value ([1]; principle analysis of 49 patients, 13 of 22 patients given Tanganil, IV then oral treatment) of the same compound?
**A.** 59.1%

**Q.** What about the “patients able to maintain a standing position at D8” value ([1]; subgroup with vestibular deficit less than or equal to 75%, 12 of 16 patients) of the same compound?
**A.** 75%

**Q.** And the “average change on the vertigo VAS” value ([2]; D8, vestibular deficit less than or equal to 75%)?
**A.** −23.5 mm

**Q.** And the “difference vs placebo on vertigo VAS” value ([2]; D8, vestibular deficit less than or equal to 75%, Wilcoxon test p=0.037)?
**A.** statistically significant difference

**Q.** And the “difference vs placebo on vomiting VAS” value ([2]; vestibular deficit greater than 75%)?
**A.** No significant difference

**Q.** And the “difference vs placebo on vertigo VAS” value ([2]; vestibular deficit greater than 75%, Wilcoxon test p=0.154)?
**A.** no significant difference

**Q.** And the “effect on vomiting VAS vs placebo” value ([2]; vestibular deficit less than or equal to 75%, significant difference between the two groups)?
**A.** reduction in vomiting severity

**Q.** And the “cases with improvement in vertigo symptomatology, including the disappearance of vertigo attacks” value [3]?
**A.** more than 95%

**Q.** What about the “effect on recovery of locomotor equilibrium” value [4] of the same compound?
**A.** facilitates the recovery of locomotor equilibrium

**Q.** And the “effect on vestibular compensation” value ([5]; after unilateral labyrinthectomy in the guinea pig)?
**A.** accelerate vestibular compensation

**Q.** What about the “effect on normal vestibular functioning” value ([5]; guinea pig) of the same compound?
**A.** no effect

**Q.** What about the “static posturography, difference vs placebo” value ([6]; D8, vestibular deficit greater than 75%, eyes open or closed and/or with or without foam) of the same compound?
**A.** either no significant difference was observed between Tanganil® and the placebo or a significant difference was observed between the two groups in favor of the placebo

**Q.** What about the “right/left posturography (postural oscillations)” value ([6]; D8, vestibular deficit less than or equal to 75%, with foam, eyes open, p=0.034 vs placebo) of the same compound?
**A.** +7.9 mm

**Q.** And the “right/left posturography, difference vs placebo” value ([6]; D8, without foam, eyes open test)?
**A.** no significant difference

**Q.** And the “static posturography, difference vs placebo” value ([6]; vestibular deficit less than or equal to 75%, regardless of experimental conditions)?
**A.** significant difference between treatment groups in favor of Tanganil®

**Q.** And the “right/left posturography (postural oscillations)” value ([6]; vestibular deficit less than or equal to 75%, with foam, eyes closed, p=0.016 vs placebo)?
**A.** +5.4 mm

**Q.** What about the “right/left posturography (postural oscillations)” value ([6]; vestibular deficit less than or equal to 75%, without foam, eyes closed, p=0.028 vs placebo) of the same compound?
**A.** +2.8 mm

**Q.** For CC(=O)N[C@H](CC(C)C)C(=O)O [Acetyl-D-leucine], which “effect on action potentials of depolarized neurons” value ([7]; 1 mM) is on record?
**A.** action potentials stop due to blocking of the membrane potential at a more depolarized level

**Q.** And the Membrane potential ([7]; before application (baseline))?
**A.** −72.2 ± 5.2 mV

**Q.** What about the Membrane potential ([7]; during application, 1 mM) of the same compound?
**A.** −67.2 ± 4.6 mV

**Q.** What about the “effect on the membrane potential of hyperpolarized neurons” value ([7]; hyperpolarized neurons, 1 mM) of the same compound?
**A.** significantly increases

**Q.** What about the Action potential frequency ([7]; before application (baseline)) of the same compound?
**A.** 11.5 ± 6.8 Hz

**Q.** And the Action potential height ([7]; before application (baseline))?
**A.** 59.0 ± 7.7 mV

**Q.** What about the Depolarization threshold ([7]; before application (baseline)) of the same compound?
**A.** −28.1 ± 4.5 mV

**Q.** And the Resting potential ([7]; before application (baseline))?
**A.** −42.7 ± 3.6 mV

**Q.** And the Action potential frequency ([7]; during application, 1 mM)?
**A.** 8.9 ± 7.7 Hz

**Q.** And the Action potential height ([7]; during application, 1 mM)?
**A.** 50.7 ± 17.3 mV

**Q.** And the Depolarization threshold ([7]; during application, 1 mM)?
**A.** −27.0 ± 10.2 mV

**Q.** And the Resting potential ([7]; during application, 1 mM)?
**A.** −42.0 ± 3.6 mV

**Q.** What about the “activity in surgical unilateral neurotomy model” value [8] of the same compound?
**A.** active

**Q.** For CC(=O)N[C@@H](CC(C)C)C(=O)O [Acetyl-L-leucine], which “effect on action potentials of depolarized neurons” value ([7]; 1 mM) is on record?
**A.** not observed

**Q.** And the Membrane potential ([7]; before application (baseline))?
**A.** −70.0 ± 2.1 mV

**Q.** What about the Membrane potential ([7]; during application, 1 mM) of the same compound?
**A.** −71.6 ± 3.2 mV

**Q.** What about the Action potential frequency ([7]; before application (baseline)) of the same compound?
**A.** 14.1 ± 9.0 Hz

**Q.** And the Action potential height ([7]; before application (baseline))?
**A.** 59.0 ± 7.3 mV

**Q.** And the Depolarization threshold ([7]; before application (baseline))?
**A.** −30.4 ± 5.6 mV

**Q.** What about the Resting potential ([7]; before application (baseline)) of the same compound?
**A.** −44.5 ± 2.1 mV

**Q.** And the Action potential frequency ([7]; during application, 1 mM)?
**A.** 12.4 ± 7.8 Hz

**Q.** And the Action potential height ([7]; during application, 1 mM)?
**A.** 49.8 ± 11.4 mV

**Q.** What about the Depolarization threshold ([7]; during application, 1 mM) of the same compound?
**A.** −27.7 ± 8.4 mV

**Q.** And the Resting potential ([7]; during application, 1 mM)?
**A.** −42.7 ± 3.7 mV

**Q.** And the “activity in surgical unilateral neurotomy model” value [8]?
**A.** active
